Laboratory results published in patent publication US20170273961A1, “NOVEL IMINONITRILE DERIVATIVES” (CURADEV PHARMA, PVT. LTD., priority 2014, published 2017).

Target: T1, IDO1 (Mus musculus, UniProt P28776)
T1 construct: LPS-injected mice have been used as models to study IDO1 expression and activity; from tissue; host or cells: whole animal: LPS-injected C57BL/6 mice, with IDO1 induced in a variety of tissues
Experiment: Reduction of LPS induced plasma kynurenine levels in C57BL/6 mice
Type: in vivo
Conditions: LPS-injected (6 mg/kg i.p.) C57BL/6 mice; test compound given orally 20 h after LPS; plasma KYN by LC/MS/MS at 2 hr post dosing
From the text: Inflammatory mediators such as Lipopolysaccharides (LPS) and Interferon-gamma (IFNg) are well-established inducers of IDO1 expression. Intraperitoneal (i.p.) administration of bacterial lipopolysaccharide (LPS) induces peak IDO1 activity in a variety of tissues within one day after LPS administration resulting in the production and release of kynurenine into the bloodstream (Takikawa, O., et al. (1986) J. Biol. Chem. 261:3648-53; Yoshida, H., et al. (1998) Cell 94:739-750). LPS-injected mice have been used as models to study IDO1 expression and activity. Three—eight fed C57 BL/6 mice (age 7-8 weeks, weight: about 20-22 g) were injected intrapritoneally with bacterial lipopolysaccharide (LPS; 26:B6 Sigma) at a concentration of 6 mg/kg. Animals were then housed in normal condition for 20 hours at which time the test compounds were administered orally in formulation containing 30% polyethylene glycol 400 (PEG 400) and 20% propylene glycol (PG) in normal saline (Dosing volume 10 mL/kg). Blood was drawn through retro-orbital bleeds into a tube containing 100 mM EDTA for plasma collection at the following times: just prior to LPS treatment, just prior to test compound dosing (0 hr) and then at 2 hr, 4 hr, 6 hr, 8 hr, 24 hr and 48 hr post-test compound dosing. Plasma KYN and drug levels were determined by LC/MS/MS using an API4000 mass spectrometer (Applied Biosystems) coupled to a Shimadzu Prominence LC system fitted with a C18 column.
The compounds of the invention decrease kynurenine levels. The compounds of the invention trigger a decrease of kynurenine levels at 2 hrs of at least 5%.

T1 sequence (P28776 whole entry): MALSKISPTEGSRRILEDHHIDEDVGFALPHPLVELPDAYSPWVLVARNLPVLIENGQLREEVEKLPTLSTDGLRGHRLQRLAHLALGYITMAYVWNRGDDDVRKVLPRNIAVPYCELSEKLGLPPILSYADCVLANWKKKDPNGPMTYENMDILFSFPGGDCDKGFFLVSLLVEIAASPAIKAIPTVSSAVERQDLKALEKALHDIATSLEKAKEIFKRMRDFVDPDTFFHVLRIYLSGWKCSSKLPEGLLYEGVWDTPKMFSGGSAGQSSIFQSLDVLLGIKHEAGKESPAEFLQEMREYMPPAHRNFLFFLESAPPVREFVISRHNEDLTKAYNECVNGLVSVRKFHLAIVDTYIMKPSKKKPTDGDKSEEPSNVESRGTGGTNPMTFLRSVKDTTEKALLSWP

Row | SMILES | percentage of decrease of kynurenine level at two hours
1 | N#C/C(=N\c1ccc(F)c(Cl)c1)c1ccncc1O [Compound 01, N-(3-Chloro-4-fluorophenyl)-3-hydroxyisonicotinimidoyl nitrile] | 73%
2 | N#C/C(=N\c1ccc(F)c(Cl)c1)c1ccnc(C#N)c1O [Compound 02, N-(3-Chloro-4-fluorophenyl)-2-cyano-3-hydroxyIsonicotinimidoyl nitrile] | 45%
3 | N#C/C(=N\c1ccc(F)c(C(F)(F)F)c1)c1ccnc(C#N)c1O [Compound 03, 2-Cyano-N-(4-fluoro-3-(trifluoromethyl)phenyl)-3-hydroxyisonicotinimidoyl nitrile] | 25%
4 | N#C/C(=N\c1ccc(F)c(C(F)(F)F)c1)c1ccncc1O [Compound 05, N-(4-Fluoro-3-(trifluoromethyl)phenyl)-3-hydroxyisonicotinimidoyl nitrile] | 64%
5 | N#C/C(=N\c1ccc(F)c(Cl)c1)c1cc(F)ncc1O [Compound 06, N-(3-Chloro-4-fluorophenyl)-2-fluoro-5-hydroxyIsonicotinimidoyl nitrile] | 73%
6 | N#C/C(=N\c1ccc(F)c(F)c1)c1ccnc(-c2ccncc2)c1O [Compound 08, N-(3,4-Difluorophenyl)-3-hydroxy-[2,4′-bipyridine]-4-carbimidoyl nitrile] | 83%
7 | Cc1cc(-c2nccc(/C(C#N)=N/c3ccc(F)cc3)c2O)ccn1 [Compound 11, N-(4-Fluorophenyl)-3-hydroxy-2′-methyl-[2,4′-bipyridine]-4-carbimidoyl nitrile] | 82%
8 | N#C/C(=N\c1ccc(F)c(Cl)c1)c1ccnc(Nc2ccccc2)c1O [Compound 12, N-(3-Chloro-4-fluorophenyl)-3-hydroxy-2-(phenylamino)isonicotinimidoyl nitrile] | 15%
9 | N#C/C(=N\c1ccc(F)c(Cl)c1)c1ccnc(-c2ccccc2)c1O [Compound 13, N-(3-Chloro-4-fluorophenyl)-3-hydroxy-2-phenylisonicotinimidoyl nitrile] | 46%
10 | COc1cc(/C(C#N)=N/c2ccc(F)c(Cl)c2)c(O)cn1 [Compound 14, N-(3-Chloro-4-fluorophenyl)-5-hydroxy-2-methoxyisonicotinimidoyl nitrile] | 18%

Next, values leading:

Row | percentage of decrease of kynurenine level at two hours | SMILES
11 | 77% | N#C/C(=N\c1ccc(F)c(Cl)c1)c1ccnc(-c2ccncc2)c1O [Compound 04, N-(3-Chloro-4-fluorophenyl)-3-hydroxy-[2,4′-bipyridine]-4-carbimidoyl nitrile]
12 | 43% | CNC(=O)c1cc(-c2nccc(/C(C#N)=N/c3ccc(F)c(Cl)c3)c2O)ccn1 [Compound 07, N-(3-Chloro-4-fluorophenyl)-3-hydroxy-2′-(methylcarbamoyl)-[2,4′-bipyridine]-4-carbimidoyl nitrile]
13 | 71% | Cc1cc(-c2nccc(/C(C#N)=N/c3ccc(F)c(Cl)c3)c2O)ccn1 [Compound 09, N-(3-Chloro-4-fluorophenyl)-3-hydroxy-2′-methyl-[2,4′-bipyridine]-4-carbimidoyl nitrile]
14 | 79% | Cc1cc(-c2nccc(/C(C#N)=N/c3ccc(F)c(F)c3)c2O)ccn1 [Compound 10, N-(3,4-Difluorophenyl)-3-hydroxy-2′-methyl-[2,4′-bipyridine]-4-carbimidoyl nitrile]
15 | 47% | COc1cc(-c2nccc(/C(C#N)=N/c3ccc(F)c(Cl)c3)c2O)ccn1 [Compound 15, N-(3-Chloro-4-fluorophenyl)-3-hydroxy-2′-methoxy-[2,4′-bipyridine]-4-carbimidoyl nitrile]
16 | 36% | Cc1cc(-c2nccc(/C(C#N)=N/c3ccc(F)c(Cl)c3)c2O)cc(C)n1 [Compound 16]
